From article PMC12778052 (Science Advances, 2026)

Key:
SCaBER cells = assay: [^68Ga]AJ647 binding after EV preincubation, SCaBER cells; type: cell-based; conditions: EV 60 nM preincubated 30 min, P < 0.0001
Procedure: (§1) An FITC analog of EV was made using the manufacturer’s recommended protocol (Thermo Fisher Scientific, no. 46409). Briefly, 1 mg of EV was incubated with FITC-NHS ester at a 5:1 molar ratio overnight at 4°C at 0.1 M borate buffer (pH 8.0). Excess unbound FITC-NHS ester was washed off by performing buffer exchange with 1× PBS using three rounds of ultracentrifugation at 4000g for 10 min (3-kDa molecular weight cutoff filter, Amicon, no. UFC900308). The effect of nonradioactive AJ647 on EV binding to Nectin-4 was assessed by incubating HT1376 cells at varying concentrations (5.4 μM to 0.01 nM using a serial dilution) of AJ647 for 30 min at 4°C. Unbound AJ647 was washed off using 3 ml of cold PBS. Cells were incubated with EV-FITC for 30 min at 4°C. Excess EV-FITC was washed off using 3 ml of cold PBS. The mean fluorescence intensity was measured using a flow cytometer, and data are reported as the percentage of 0 nM AJ647. For the effect of EV on [^68Ga]AJ647 binding, EV was used at concentrations of 90 to 0.04 nM using serial dilutions for 30 min at 4°C. Unbound EV was washed off using cold PBS. Then, cells were incubated with 1 μCi of [^68Ga]AJ647 for an additional 30 min. Excess [^68Ga]AJ647 was washed off three times with cold PBS. Samples were read in an automated gamma counter, and data are reported as the percentage of 1-μCi standard counts.

T24 cells = assay: [^68Ga]AJ647 binding after EV preincubation, T24 cells; type: cell-based; conditions: T24 (Nectin-4-negative); EV 60 nM preincubated 30 min
Procedure: as §1

[1] = lowest exposure (Cavg) quartile; cited from earlier work
Source text: Real-time assessment of tumor heterogeneity remains a critical challenge in optimizing targeted therapies. Despite the importance of sensitive assays for real-time insights into drug-tumor interactions, such tools remain limited ([6], [25]). Model-based approaches that integrate nonclinical and clinical data—such as PK and PD parameters—can facilitate efficacy and safety predictions ([26]). However, these models often fail to fully account for the dynamic complexities of tumor heterogeneity and intrinsic factors that affect drug PK/PD, especially in real time. This is particularly true for mac ...

Substance: enfortumab vedotin [EV]
- effect on [^68Ga]AJ647 binding (SCaBER cells): significantly reduced [^68Ga]AJ647 binding
- effect on [^68Ga]AJ647 binding (T24 cells): but not in Nectin-4–negative T24 cells
- response rate [1]: 32%
